# Assay: Laundry test followed by SPME GC/MS headspace analysis of cotton tracers
# Details: headspace of the perfume ingredient above wet cotton tracers, Ex 1 (PQ22) versus Ex A (nil-PQ22)
# Procedure: 100% cotton fabric cut into 30x30cm squares were washed in a mixed cotton/polycotton load of total 3kg in a front load washing machine (Miele 1935) at 40°C cotton short setting, with 2 rinses, using 2.67 mmol/L Ca (15 gpg) water hardness. A 55 ml dose of the respective detergent was added to a dosing cup and placed inside the washing machine. After the wash cycle was finished, the full load was tumbled (using a Miele Novotronic, type: TD7634) for about 1 hour. Table 1: Inventive detergent composition (Ex 1) and comparative laundry detergent composition (Ex A) used in the laundry test:
# The load was washed and dried three consecutive times, then placed back into a washing machine After a fourth wash cycle, the wet cotton tracers were separated and packed in aluminium foil until they were ready to be analysed for headspace.
# The headspace was analysed using solid […] (SPME) chromatography using the following procedure: • 1. One piece of 4x4 cm cotton tracers were transferred to 25 ml headspace vials. • 2. The fabric samples were equilibrated for 10 minutes at 65°C. • 3. The headspace above the fabrics was sampled via SPME (50/30µm DVB/Carboxen/PDMS) for 5 minutes. • 4. The SPME fiber was subsequently thermally desorbed into the GC. • 5. The analytes were analyzed by GC/MS (GC: Agilent 8890 and MS: Agilent 5977B MS) in full scan mode. The total perfume HS response and perfume headspace composition above the tested legs could be determined.
row,Compound,% increase Ex 1 vs Ex A
1,"3-(3,3-dimethyl-2,3-dihydro-1H-inden-5-yl)propanal mixt. wth 3-(1,1-dimethyl-2,3-dihydro-1H-inden-5-yl)propanal [Neo Hivernal]",-58%
2,"C=CCOC(=O)COCCC(C)C [Allyl amyl glycolate, allyl 2-(isopentyloxy)acetate]",2003%
3,"CC1=CCC2CC1C2(C)C (stereo not drawn) [Alpha pinene, 2,6,6-trimethylbicyclo(3.1.1)hept-2-ene]",-33%
4,"COc1ccc(C=O)cc1 [Anisic aldehyde, 4-methoxybenzaldehyde]",854%
5,"CC(=O)OCc1ccccc1 [Benzyl acetate, benzyl acetate]",1840%
6,"COc1ccc2ccccc2c1 [Beta napthol methyl ether, 2-methoxynaphthalene]",104%
7,"CC(C)=CCCC(C)CCO (stereo not shown) [Citronellol, 3,7-dimethyloct-6-en-1-ol]",108%
8,"CC(C)=CCCC(C)CC#N (stereo not shown) [Citronellyl nitrile, 3,7-dimethyloct-6-enenitrile]",457%
9,"CC1/C=C/CCCCCCCCCCC(=O)C1 (stereo not shown) [Delta muscenone, (E)-3-methylcyclopentadec-4-en-1-one]",-27%
10,"CCOC(=O)C1OC1(C)c1ccccc1 (stereo not shown) [Ethyl methyl phenyl glycidate, ethyl 3-methyl-3-phenyloxirane-2-carboxylate]",inf
11,"CCOC(=O)C1=C(C)C=CCC1(C)C [Ethyl safranate, ethyl 2,6,6-trimethylcyclohexa-1,3-diene-1-carboxylate]",26%
12,"O=C1CCCCCCCCCCCCCCO1 [Exaltolide total, oxacyclohexadecan-2-one]",-33%
13,"CC(C)c1cccc(C(C)CC=O)c1 (stereo not shown) [Florhydral, 3-(3-isopropylphenyl)butanal]",-60%
14,"CCC(=O)OCC(C)(C)OC(C)C1CCCC(C)(C)C1 (stereo not shown) [Helvetolide, 2-(1-(3,3-dimethylcyclohexyl)ethoxy)-2-methylpropyl propionate]",-50%
15,"CC(=O)/C=C/C1=C(C)CCCC1(C)C [Ionone beta, (E)-4-(2,6,6-trimethylcyclohex-1-en-1-yl)but-3-en-2-one]",18%
16,"CCCC(=O)OCCC(C)C [Isoamyl butyrate, isopentyl butyrate]",8685%
17,"C=C(C)C1CC=C(C)C(=O)C1 (stereo not shown) [Laevo carvone, 2-methyl-5-(prop-1-en-2-yl)cyclohex-2-en-1-one]",468%
18,"CC(C=O)Cc1ccc(C(C)(C)C)cc1 (stereo not shown) [Lilial, 3-(4-(tert-butyl)phenyl)-2-methylpropanal]",-55%
19,"C=CC(C)(O)CCC=C(C)C (stereo not shown) [Linalool, 3,7-dimethylocta-1,6-dien-3-ol]",42%
20,"C=CC(C)(CCC=C(C)C)OC(=O)CC (stereo not shown) [Linalyl propionate, 3,7-dimethylocta-1,6-dien-3-yl propionate]",-50%
21,"CC(=O)c1ccc2ccccc2c1 [Methyl Beta-napthyl ketone, 1-(naphthalen-2-yl)ethan-1-one]",268%
22,"COC(=O)c1ccccc1O [Methyl salicylate, methyl 2-hydroxybenzoate]",915%
23,"CCCCCCCC=O [Octyl Aldehyde, octanal]",16%
24,"COc1ccc(C)cc1 [Para cresyl methyl ether, 1-methoxy-4-methylbenzene]",13731%
25,"CC(C)(O)CCc1ccccc1 [Phenyl ethyl dimethyl carbinol, 2-methyl-4-phenylbutan-2-ol]",1106%

# From patent publication EP4245832B1, “DETERGENT COMPOSITIONS” (The Procter & Gamble Company, priority 2022, dated 2023)
